Experiments:
Vangl2-p62 interaction [1] = target: T1, Vangl2-p62 interaction (Homo sapiens, UniProt Q9ULK5); test: Co-immunoprecipitation in SUM149 cells expressing the construct; assay type: cell-based; settings: construct expressed in SUM149 cells, compared to GFP alone
T1 construct: endogenous in cells; host or cells: SUM149 cells / cell extracts
T1 sequence (Q9ULK5 1-521): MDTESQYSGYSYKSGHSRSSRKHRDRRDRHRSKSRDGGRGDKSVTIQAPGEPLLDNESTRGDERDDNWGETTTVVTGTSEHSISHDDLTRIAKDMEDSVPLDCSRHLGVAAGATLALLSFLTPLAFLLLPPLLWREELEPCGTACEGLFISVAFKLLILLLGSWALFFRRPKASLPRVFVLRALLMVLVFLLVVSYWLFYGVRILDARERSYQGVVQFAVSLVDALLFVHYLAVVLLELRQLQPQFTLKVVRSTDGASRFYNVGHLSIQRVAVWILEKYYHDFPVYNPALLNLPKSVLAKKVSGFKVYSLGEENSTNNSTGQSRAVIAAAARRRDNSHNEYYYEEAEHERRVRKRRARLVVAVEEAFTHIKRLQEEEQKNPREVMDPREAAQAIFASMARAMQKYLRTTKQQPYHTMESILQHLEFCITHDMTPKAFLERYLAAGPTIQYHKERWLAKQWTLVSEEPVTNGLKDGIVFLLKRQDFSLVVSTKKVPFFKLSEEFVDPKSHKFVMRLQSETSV
Excerpt: (§1) As JNK signaling is usually activated following PCP activation, we next investigated this pathway in SUM149 cells. As previously shown, down-regulation of Vangl2 leads to a decrease in JNK signaling as shown using a time-dependent FCS stimulation of SUM149 transfected with shVangl2 compared to shLuc. No change in phosphorylation of GSK3 was evidenced in the absence of Vangl2. […] Knock-down of p62 expression in SUM149 cells phenocopied lack of Vangl2 expression. […] Next, we fused the p62 (346-388) sequence to GFP and expressed the construct in SUM149 cells. […] Indeed, this construct was able to specifically coimmunoprecipitate with Vangl2 and furthermore compete with the endogenous Vangl2-p62 interaction as shown by the decreased amount of endogenous p62 associated with Vangl2. In order to assess the contribution of the Vangl2-p62 interaction in JNK signaling, we utilized the dominant negative region of p62 and expressed this as a GFP-tagged protein.

JNK signaling = JNK signaling in SUM149 cells; assay type: cell-based; settings: compared to GFP alone or shLuc
Excerpt: as §1

p62 = p62 immunolocalization and protein level under autophagy modulators; assay type: cell-based; settings: breast cancer and Hela cells
Excerpt: (§2) We next addressed the potential colocalization of Vangl2 and p62 in SUM149 cells by immunofluorescence and confocal analysis. In these cells, Vangl2 and p62 have a punctate cytoplasmic pattern and colocalization between the two proteins was seen puncta in the perinuclear region. Specificity of the Vangl2 signal is attested by lack of staining in cells treated with shVangl2. p62 is present in autophagosomes where it accumulates ubiquitinylated proteins bound to its UBA domain for autophagic degradation. Autophagy is active when the fusion between autophagosomes and lysosomes occur leading to the formation of autophagolysosomes endowed with degradative properties. The fusion process, and therefore autophagy, can be inhibited by Bafilomycin A1, an inhibitor of the vacuolar ATPase that blocks the fusion process by blocking the membrane-bound lysosomal vacuolar ATPase (V-ATPase) to prevent the lysosomal lumen acidification responsible for cathepsin activation. Alternatively, autophagy can be induced by rapamycin, an inhibitor of mTOR [38]. […] Decrease of p62 protein level can also be monitored by western blot. Vangl2 protein levels remained unmodified by rapamycin treatment while another prominent feature of autophagy, i.e. degradation of p62 was readily seen. […]

Vangl2 = Vangl2 protein level (western blot) and cellular distribution under autophagy modulators; assay type: cell-based
Excerpt: as §2

Vangl2-p62 interaction [2] = target: T1, Vangl2-p62 interaction; test: Competition of endogenous Vangl2-p62 interaction recovered by immunoprecipitation, peptide incubated in SUM149 cell extracts; assay type: binding; settings: SUM149 cells / cell extracts
SUM149 cells [3] = test: Cell migration assay (Boyden chamber, serum as chemo-attractant); assay type: cell-based; settings: compared to Venus ctrl or shLuc
SUM149 cells [4] = test: Long-term cell proliferation and anchorage-independent soft agar assays; assay type: cell-based; settings: compared to Venus ctrl or shLuc
Excerpt: In order to challenge the role of Vangl2 in tumor growth, we first designed different short hairpin RNA (shRNA) to downregulate Vangl2 protein expression in SUM149, a basal breast cancer cell line, which were targeted to different sequences of the VANGL2 gene. Vangl2 expression is decreased by approximately 90% with shVangl2 (clone 3.6.9 and 3.2.12) compared shLuc controls. […] Behaviour of shLuc-SUM149 and shVangl2-SUM149 cells was next compared in long-term cell proliferation and anchorage-independent experiments using soft agar assays. Cell proliferation and in vitro tumorigenicity of SUM149 cells were decreased when expression of Vangl2 was decreased using shVangl2 clone 3.6.9. This effect was confirmed using a second shVangl2 clone 3.2.12. The tumorigenic potential of Vangl2 was next assessed in vivo by performing subcutaneous xenografts in NOG mice. Orthotopic injections of shLuc-SUM149 and shVangl2-SUM149 cells were performed and tumour growth was periodically measured.
As JNK signaling is usually activated following PCP activation, we next investigated this pathway in SUM149 cells. As previously shown, down-regulation of Vangl2 leads to a decrease in JNK signaling as shown using a time-dependent FCS stimulation of SUM149 transfected with shVangl2 compared to shLuc. No change in phosphorylation of GSK3 was evidenced in the absence of Vangl2. […]

Compound: GFP-p62 (346-388): p62 (346-388) sequence fused to GFP, expressed in SUM149 cells
- effect on endogenous Vangl2-p62 interaction in co-immunoprecipitation (Vangl2-p62 interaction [1]): dominant-negative effect
- JNK signalling (JNK signaling): decrease

Compound: CO/C1=C\C(C)=C\[C@@H](C)[C@@H](O)[C@@H](C)C/C(C)=C/C=C/[C@H](OC)[C@@H]([C@@H](C)[C@@H](O)[C@H](C)[C@@]2(O)C[C@@H](O)[C@H](C)[C@@H](C(C)C)O2)OC1=O [Bafilomycin A1]
- p62 immunolocalization (p62): accumulates
- Vangl2 protein levels (Vangl2): not modified

Compound: polypeptide (346-371): polypeptide reduced in size, residues 346-371 of p62 (SEQ ID NO:2) (VDPSTGELQSLQMPESEGPSSLDPSQ; listed as Homo sapiens)
- disruption of the endogenous Vangl2-p62 interaction (Vangl2-p62 interaction [2]): able to inhibit

Compound: Venus-p62 (346-388): Venus-tagged p62 (346-388) expressed by lentiviral infection
- cell migration (SUM149 cells [3]): decrease
- colonies in soft agar / in vitro tumorigenicity (SUM149 cells [4]): fewer colonies

Reference: patent publication US20160032005A1, “METHODS AND PHARMACEUTICALS COMPOSITIONS FOR TREATING BREAST CANCERS” (INSERM (Institut National de la Sante et de la Recherche …, priority 2014, published 2016)
